Measured values taken from patent publication US10030007B2, “Quinazolin-THF-amines as PDE1 inhibitors” (H. Lundbeck A/S, priority 2013, dated 2018).

Tests used:
Format in all cases: biochemical
Conditions in all cases: 15 nM tritium labelled cAMP, 1 h at room temperature, SPA beads
PDE1C = PDE1C (Homo sapiens, UniProt Q14123); assay: PDE1 inhibition assay (SPA), PDE1C
Method: (§1) PDE1A, PDE1B and PDE1C assays were performed as follows: the assays was performed in 60 μL samples containing a fixed amount of the PDE1 enzyml (sufficient to convert 20-25% of the cyclic nucleotide substrate), a buffer (50 mM HEPES pH 7.6; 10 mM MgCl2; 0.02% Tween20), 0.1 mg/ml BSA, 15 nM tritium labelled cAMP and varying amounts of inhibitors. Reactions were initiated by addition of the cyclic nucleotide substrate, and reactions were allowed to proceed for 1 h at room temperature before being terminated through mixing with 20 μL (0.2 mg) yttrium silicate SPA beads (PerkinElmer). The beads were allowed to settle for 1 h in the dark before the plates were counted in a Wallac 1450 Microbeta counter. The measured signals were converted to activity relative to an uninhibited control (100%) and IC50 values were calculated using XlFit (model 205, IDBS).

PDE1B = PDE1B (Homo sapiens, UniProt Q01064); assay: PDE1 inhibition assay (SPA), PDE1B
Method: as §1

PDE1A = PDE1A (Homo sapiens, UniProt P54750); assay: PDE1 inhibition assay (SPA), PDE1A
Method: as §1

PDE1B, sequence (Q01064 whole entry): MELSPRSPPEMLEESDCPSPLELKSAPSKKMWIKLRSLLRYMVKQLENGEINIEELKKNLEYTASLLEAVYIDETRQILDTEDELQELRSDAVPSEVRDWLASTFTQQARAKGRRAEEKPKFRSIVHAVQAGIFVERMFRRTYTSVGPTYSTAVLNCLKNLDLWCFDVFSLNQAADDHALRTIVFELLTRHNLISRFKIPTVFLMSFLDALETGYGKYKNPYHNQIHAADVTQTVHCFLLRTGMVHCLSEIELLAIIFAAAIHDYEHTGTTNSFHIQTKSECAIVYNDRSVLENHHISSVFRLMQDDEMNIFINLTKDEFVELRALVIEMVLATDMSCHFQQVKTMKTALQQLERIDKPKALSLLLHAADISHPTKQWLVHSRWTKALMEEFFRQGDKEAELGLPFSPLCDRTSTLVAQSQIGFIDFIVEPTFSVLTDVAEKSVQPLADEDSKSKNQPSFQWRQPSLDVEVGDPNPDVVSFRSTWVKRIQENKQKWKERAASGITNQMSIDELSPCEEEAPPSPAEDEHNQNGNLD
PDE1C, sequence (Q14123 whole entry): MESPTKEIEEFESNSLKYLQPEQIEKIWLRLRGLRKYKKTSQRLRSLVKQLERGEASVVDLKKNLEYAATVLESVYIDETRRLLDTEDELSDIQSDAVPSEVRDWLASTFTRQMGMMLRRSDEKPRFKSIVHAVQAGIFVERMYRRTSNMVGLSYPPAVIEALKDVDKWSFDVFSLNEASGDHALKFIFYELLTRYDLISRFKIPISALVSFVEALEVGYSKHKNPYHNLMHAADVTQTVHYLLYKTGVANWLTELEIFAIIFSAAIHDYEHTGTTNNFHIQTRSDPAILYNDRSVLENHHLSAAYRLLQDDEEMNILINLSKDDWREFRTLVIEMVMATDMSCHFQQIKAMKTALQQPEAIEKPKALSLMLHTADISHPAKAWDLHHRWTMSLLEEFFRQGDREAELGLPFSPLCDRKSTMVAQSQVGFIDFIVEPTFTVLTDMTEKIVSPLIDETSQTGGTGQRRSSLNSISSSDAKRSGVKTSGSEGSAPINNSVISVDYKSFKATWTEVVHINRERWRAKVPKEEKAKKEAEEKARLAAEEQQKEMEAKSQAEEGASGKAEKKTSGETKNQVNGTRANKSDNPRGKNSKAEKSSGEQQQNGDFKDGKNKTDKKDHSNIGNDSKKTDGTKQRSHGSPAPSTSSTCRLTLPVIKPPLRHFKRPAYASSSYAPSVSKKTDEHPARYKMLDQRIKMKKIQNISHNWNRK
PDE1A, sequence (P54750 whole entry): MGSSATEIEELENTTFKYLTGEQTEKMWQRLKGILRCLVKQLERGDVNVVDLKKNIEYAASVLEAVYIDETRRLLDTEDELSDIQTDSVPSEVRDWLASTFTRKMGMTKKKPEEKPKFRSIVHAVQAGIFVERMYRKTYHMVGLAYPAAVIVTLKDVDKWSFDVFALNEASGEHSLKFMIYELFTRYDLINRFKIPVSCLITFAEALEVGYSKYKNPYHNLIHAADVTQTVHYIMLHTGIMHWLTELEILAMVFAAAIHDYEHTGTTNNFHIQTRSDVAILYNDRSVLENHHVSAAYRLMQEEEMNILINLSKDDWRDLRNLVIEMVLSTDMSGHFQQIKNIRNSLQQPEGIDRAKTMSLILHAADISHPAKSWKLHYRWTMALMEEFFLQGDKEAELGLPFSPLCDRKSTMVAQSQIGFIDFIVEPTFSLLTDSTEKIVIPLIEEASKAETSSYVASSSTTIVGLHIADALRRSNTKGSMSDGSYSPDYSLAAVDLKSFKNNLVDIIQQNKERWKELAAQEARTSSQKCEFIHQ

| SMILES | IC50 (PDE1C) [nM] | IC50 (PDE1B) [nM] | IC50 (PDE1A) [nM] |
| --- | --- | --- | --- |
| COc1ccc2c(NC3CCOC3C3CC3)ncnc2c1OC (stereo not drawn) [Compound 25, N-(2-Cyclopropyltetrahydrofuran-3-yl)-7,8-dimethoxyquinazolin-4-amine] | 1300 | 260 | 2400 |
| COc1ccc2c(N[C@@H]3CCO[C@H]3C3CC3)ncnc2c1OC (relative stereo) [Compound 2, trans-N-(-2-cyclopropyltetrahydrofuran-3-yl)-7,8-dimethoxyquinazolin-4-amine] | 1300 | 260 | 2400 |
